# Results: ChEMBL document CHEMBL3400144, “Design and synthesis of novel 1,2-dithiolan-4-yl benzoate derivatives as PTP1B inhibitors” (Bioorg Med Chem Lett, 2015)
# Molecular target: T1, Tyrosine-protein phosphatase non-receptor type 11 (Homo sapiens, UniProt Q06124)
# T1 sequence (Q06124 whole entry): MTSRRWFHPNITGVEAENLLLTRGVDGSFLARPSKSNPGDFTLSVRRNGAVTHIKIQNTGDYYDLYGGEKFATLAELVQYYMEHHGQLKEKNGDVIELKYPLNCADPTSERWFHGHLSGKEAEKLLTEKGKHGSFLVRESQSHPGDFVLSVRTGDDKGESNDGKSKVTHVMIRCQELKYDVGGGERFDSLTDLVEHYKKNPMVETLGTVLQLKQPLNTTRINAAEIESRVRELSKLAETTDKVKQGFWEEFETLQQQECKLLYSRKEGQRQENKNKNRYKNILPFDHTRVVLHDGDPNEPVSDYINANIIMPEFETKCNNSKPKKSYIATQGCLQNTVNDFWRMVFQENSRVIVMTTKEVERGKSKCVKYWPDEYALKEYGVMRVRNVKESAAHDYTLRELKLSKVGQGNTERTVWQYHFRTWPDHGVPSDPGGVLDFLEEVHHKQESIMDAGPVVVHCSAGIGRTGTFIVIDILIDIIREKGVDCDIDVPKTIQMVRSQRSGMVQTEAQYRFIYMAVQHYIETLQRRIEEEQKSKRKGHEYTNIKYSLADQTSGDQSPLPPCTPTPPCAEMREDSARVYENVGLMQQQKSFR
# Assay: Inhibition of SHP2 (unknown origin)
# Conditions: read-out: IC50; call rule not given here
row,Structure (SMILES),IC50
1,O=C(OCCCCC#Cc1ccc(C(=O)OC2CSSC2)cc1)c1cccc([N+](=O)[O-])c1,22.3 µM
2,O=C(OC1CSSC1)c1ccc(C#CCCCCOC(=O)c2ccccc2[N+](=O)[O-])cc1,11.5 µM
3,O=C(OC1CSSC1)c1ccc(C#CCCOC(=O)c2cc(Br)ccc2Br)cc1,8.25 µM
4,O=C(OCCCCC#Cc1ccc(C(=O)OC2CSSC2)cc1)c1cccc(F)c1,8.91 µM
5,O=C(OC1CSSC1)c1ccc(CCCCCCOC(=O)c2cc(Br)ccc2Br)cc1,9.69 µM
6,COc1ccc(C(=O)OCCCCC#Cc2ccc(C(=O)OC3CSSC3)cc2)cc1,6.64 µM
7,O=C(OC1CSSC1)c1ccc(OCCCOC(=O)c2cc(Br)ccc2Br)cc1,10.9 µM
8,O=C(OC1CSSC1)c1ccc(C#CCCCCOC(=O)c2ccccc2F)cc1,10.5 µM

# Species: Homo sapiens
# Assay: Selectivity ratio of IC50 for TCPTP (unknown origin) to IC50 for PTP1B (unknown origin)
# Conditions: not given
row,Structure (SMILES),Ratio IC50
1,O=C(OC1CSSC1)c1ccc(C#CCCOC(=O)c2cc(Br)ccc2Br)cc1,10
2,O=C(OC1CSSC1)c1ccc(CCCCCCOC(=O)c2cc(Br)ccc2Br)cc1,> 6

# Molecular target: Tyrosine-protein phosphatase non-receptor type 6 (Homo sapiens, UniProt P29350)
# Sequence (P29350 whole entry): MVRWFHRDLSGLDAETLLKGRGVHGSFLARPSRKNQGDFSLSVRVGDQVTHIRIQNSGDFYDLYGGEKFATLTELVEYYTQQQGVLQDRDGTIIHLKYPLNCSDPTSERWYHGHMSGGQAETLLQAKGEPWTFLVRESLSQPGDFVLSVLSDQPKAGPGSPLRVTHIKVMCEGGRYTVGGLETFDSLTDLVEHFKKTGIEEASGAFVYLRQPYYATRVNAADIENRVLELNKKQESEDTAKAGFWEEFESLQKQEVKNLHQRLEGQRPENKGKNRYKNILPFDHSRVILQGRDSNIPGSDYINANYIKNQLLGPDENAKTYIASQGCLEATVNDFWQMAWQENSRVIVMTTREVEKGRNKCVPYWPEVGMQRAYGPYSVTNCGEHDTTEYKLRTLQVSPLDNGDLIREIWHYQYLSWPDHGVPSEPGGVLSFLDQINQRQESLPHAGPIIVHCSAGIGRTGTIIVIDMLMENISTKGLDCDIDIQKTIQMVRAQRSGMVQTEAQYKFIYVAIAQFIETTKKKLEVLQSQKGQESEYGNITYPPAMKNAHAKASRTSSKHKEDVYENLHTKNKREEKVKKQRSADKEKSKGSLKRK
# Assay: Inhibition of SHP1 (unknown origin)
# Conditions: read-out: IC50
row,Structure (SMILES),IC50
1,O=C(OCCCCC#Cc1ccc(C(=O)OC2CSSC2)cc1)c1cccc([N+](=O)[O-])c1,23.6 µM
2,O=C(OC1CSSC1)c1ccc(C#CCCCCOC(=O)c2ccccc2[N+](=O)[O-])cc1,9.25 µM
3,O=C(OC1CSSC1)c1ccc(C#CCCOC(=O)c2cc(Br)ccc2Br)cc1,15.7 µM
4,O=C(OCCCCC#Cc1ccc(C(=O)OC2CSSC2)cc1)c1cccc(F)c1,10 µM
5,O=C(OC1CSSC1)c1ccc(CCCCCCOC(=O)c2cc(Br)ccc2Br)cc1,11.1 µM
6,COc1ccc(C(=O)OCCCCC#Cc2ccc(C(=O)OC3CSSC3)cc2)cc1,5.13 µM
7,O=C(OC1CSSC1)c1ccc(OCCCOC(=O)c2cc(Br)ccc2Br)cc1,32.2 µM
8,O=C(OC1CSSC1)c1ccc(C#CCCCCOC(=O)c2ccccc2F)cc1,8.67 µM

# Molecular target: Receptor-type tyrosine-protein phosphatase F (Homo sapiens, UniProt P10586)
# Sequence (P10586 whole entry): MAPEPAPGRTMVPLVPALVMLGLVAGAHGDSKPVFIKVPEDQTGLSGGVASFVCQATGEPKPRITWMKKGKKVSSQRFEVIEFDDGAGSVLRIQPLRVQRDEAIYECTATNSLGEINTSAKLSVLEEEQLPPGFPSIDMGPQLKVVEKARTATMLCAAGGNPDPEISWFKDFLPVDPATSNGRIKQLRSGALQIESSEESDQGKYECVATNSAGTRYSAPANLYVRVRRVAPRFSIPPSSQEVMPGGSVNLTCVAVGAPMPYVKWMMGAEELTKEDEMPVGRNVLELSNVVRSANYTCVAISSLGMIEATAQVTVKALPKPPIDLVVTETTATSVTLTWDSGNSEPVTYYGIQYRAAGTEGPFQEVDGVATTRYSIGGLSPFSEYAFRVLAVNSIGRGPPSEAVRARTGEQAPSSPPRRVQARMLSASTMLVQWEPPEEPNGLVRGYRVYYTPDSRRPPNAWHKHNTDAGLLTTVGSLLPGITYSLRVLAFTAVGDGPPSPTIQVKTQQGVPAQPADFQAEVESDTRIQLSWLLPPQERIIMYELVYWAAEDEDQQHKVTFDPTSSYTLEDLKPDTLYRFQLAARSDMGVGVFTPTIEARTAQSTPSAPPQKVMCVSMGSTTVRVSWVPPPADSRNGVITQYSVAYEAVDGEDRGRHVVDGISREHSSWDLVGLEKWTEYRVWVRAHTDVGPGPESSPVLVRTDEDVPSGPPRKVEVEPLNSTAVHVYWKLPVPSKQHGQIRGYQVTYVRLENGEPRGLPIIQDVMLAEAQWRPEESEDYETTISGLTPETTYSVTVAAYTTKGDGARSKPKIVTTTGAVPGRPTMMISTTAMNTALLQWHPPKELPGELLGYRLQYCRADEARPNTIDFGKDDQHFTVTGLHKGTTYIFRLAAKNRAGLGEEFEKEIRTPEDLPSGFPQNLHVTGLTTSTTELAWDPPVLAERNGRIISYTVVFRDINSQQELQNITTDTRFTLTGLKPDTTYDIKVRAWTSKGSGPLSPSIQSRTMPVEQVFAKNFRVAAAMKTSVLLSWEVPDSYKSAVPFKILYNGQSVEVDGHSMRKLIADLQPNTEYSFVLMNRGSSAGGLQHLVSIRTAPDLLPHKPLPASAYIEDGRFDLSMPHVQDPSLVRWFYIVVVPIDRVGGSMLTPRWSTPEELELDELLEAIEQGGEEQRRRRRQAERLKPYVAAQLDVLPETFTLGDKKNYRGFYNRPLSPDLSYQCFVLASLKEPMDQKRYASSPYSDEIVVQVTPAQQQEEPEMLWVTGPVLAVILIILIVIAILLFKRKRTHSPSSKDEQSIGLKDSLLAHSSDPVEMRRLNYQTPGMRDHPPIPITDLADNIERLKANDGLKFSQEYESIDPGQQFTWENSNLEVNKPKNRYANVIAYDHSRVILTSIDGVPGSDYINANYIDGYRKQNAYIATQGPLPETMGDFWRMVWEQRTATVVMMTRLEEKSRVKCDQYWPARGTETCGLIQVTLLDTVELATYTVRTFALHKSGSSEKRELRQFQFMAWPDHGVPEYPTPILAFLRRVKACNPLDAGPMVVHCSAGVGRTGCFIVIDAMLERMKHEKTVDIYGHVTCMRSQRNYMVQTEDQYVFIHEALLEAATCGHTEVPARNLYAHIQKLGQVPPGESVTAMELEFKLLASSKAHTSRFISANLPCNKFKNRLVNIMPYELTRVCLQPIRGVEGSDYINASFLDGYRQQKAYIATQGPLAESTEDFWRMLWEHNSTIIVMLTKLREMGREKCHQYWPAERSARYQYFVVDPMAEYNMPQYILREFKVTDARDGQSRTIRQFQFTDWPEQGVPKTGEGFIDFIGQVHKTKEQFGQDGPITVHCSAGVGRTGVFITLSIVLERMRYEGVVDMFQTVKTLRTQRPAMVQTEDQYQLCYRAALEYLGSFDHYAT
# Assay: Inhibition of LAR (unknown origin)
# Conditions: not given
row,Structure (SMILES),IC50
1,O=C(OCCCCC#Cc1ccc(C(=O)OC2CSSC2)cc1)c1cccc([N+](=O)[O-])c1,Not Active
2,O=C(OC1CSSC1)c1ccc(C#CCCCCOC(=O)c2ccccc2[N+](=O)[O-])cc1,Not Active
3,O=C(OC1CSSC1)c1ccc(C#CCCOC(=O)c2cc(Br)ccc2Br)cc1,Not Active
4,O=C(OCCCCC#Cc1ccc(C(=O)OC2CSSC2)cc1)c1cccc(F)c1,Not Active
5,O=C(OC1CSSC1)c1ccc(CCCCCCOC(=O)c2cc(Br)ccc2Br)cc1,Not Active
6,COc1ccc(C(=O)OCCCCC#Cc2ccc(C(=O)OC3CSSC3)cc2)cc1,Not Active
7,O=C(OC1CSSC1)c1ccc(OCCCOC(=O)c2cc(Br)ccc2Br)cc1,Not Active
8,O=C(OC1CSSC1)c1ccc(C#CCCCCOC(=O)c2ccccc2F)cc1,Not Active

# Molecular target: T2, Tyrosine-protein phosphatase non-receptor type 1 (Homo sapiens, UniProt P18031)
# T2 sequence (P18031 whole entry): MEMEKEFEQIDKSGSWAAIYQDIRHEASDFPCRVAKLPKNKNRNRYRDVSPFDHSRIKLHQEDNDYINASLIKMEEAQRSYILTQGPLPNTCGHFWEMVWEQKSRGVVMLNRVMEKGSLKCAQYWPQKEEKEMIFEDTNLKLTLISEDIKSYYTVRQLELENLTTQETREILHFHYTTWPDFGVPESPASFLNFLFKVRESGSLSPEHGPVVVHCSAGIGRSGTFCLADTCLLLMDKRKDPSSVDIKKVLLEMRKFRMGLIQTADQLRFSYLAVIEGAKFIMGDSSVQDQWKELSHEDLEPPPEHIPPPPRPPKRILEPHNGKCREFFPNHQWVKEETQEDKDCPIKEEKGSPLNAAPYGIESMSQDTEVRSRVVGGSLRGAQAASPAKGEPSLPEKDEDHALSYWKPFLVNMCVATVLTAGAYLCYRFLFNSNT
# Assay: Inhibition of PTP1B (unknown origin)
# Conditions: not given
row,Structure (SMILES),IC50
1,O=C(OC1CSSC1)c1ccc(OCCCOC(=O)c2cc(Br)ccc2Br)cc1,Not Active

# Same assay, conditions: read-out: IC50
row,Structure (SMILES),IC50
1,O=C(OCCCCC#Cc1ccc(C(=O)OC2CSSC2)cc1)c1cccc([N+](=O)[O-])c1,9.7 µM
2,O=C(OC1CSSC1)c1ccc(C#CCCCCOC(=O)c2ccccc2[N+](=O)[O-])cc1,9.12 µM
3,O=C(OC1CSSC1)c1ccc(C#CCCOC(=O)c2cc(Br)ccc2Br)cc1,2.73 µM
4,O=C(OCCCCC#Cc1ccc(C(=O)OC2CSSC2)cc1)c1cccc(F)c1,5.18 µM
5,O=C(OC1CSSC1)c1ccc(CCCCCCOC(=O)c2cc(Br)ccc2Br)cc1,2.68 µM
6,COc1ccc(C(=O)OCCCCC#Cc2ccc(C(=O)OC3CSSC3)cc2)cc1,6.55 µM
7,O=C(OC1CSSC1)c1ccc(C#CCCCCOC(=O)c2ccccc2F)cc1,4.43 µM

# Molecular target: T3, Tyrosine-protein phosphatase non-receptor type 2 (Homo sapiens, UniProt P17706)
# T3 sequence (P17706 whole entry): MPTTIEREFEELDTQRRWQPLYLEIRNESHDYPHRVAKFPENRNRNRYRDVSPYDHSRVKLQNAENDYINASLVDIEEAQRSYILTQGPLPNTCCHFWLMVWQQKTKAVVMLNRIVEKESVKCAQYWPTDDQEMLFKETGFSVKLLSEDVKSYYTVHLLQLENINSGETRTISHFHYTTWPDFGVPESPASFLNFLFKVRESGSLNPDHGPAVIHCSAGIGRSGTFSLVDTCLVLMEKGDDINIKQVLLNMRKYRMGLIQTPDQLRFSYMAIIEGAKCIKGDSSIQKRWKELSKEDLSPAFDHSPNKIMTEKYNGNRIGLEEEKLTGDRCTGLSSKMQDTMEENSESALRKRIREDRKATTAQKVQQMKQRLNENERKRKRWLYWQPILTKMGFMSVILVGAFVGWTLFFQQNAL
# Assay: Inhibition of TCPTP (unknown origin)
# Conditions: not given
row,Structure (SMILES),IC50
1,O=C(OCCCCC#Cc1ccc(C(=O)OC2CSSC2)cc1)c1cccc([N+](=O)[O-])c1,12.9 µM
2,O=C(OC1CSSC1)c1ccc(C#CCCCCOC(=O)c2ccccc2[N+](=O)[O-])cc1,7.83 µM
3,O=C(OC1CSSC1)c1ccc(C#CCCOC(=O)c2cc(Br)ccc2Br)cc1,26.7 µM
4,O=C(OCCCCC#Cc1ccc(C(=O)OC2CSSC2)cc1)c1cccc(F)c1,9.21 µM
5,O=C(OC1CSSC1)c1ccc(CCCCCCOC(=O)c2cc(Br)ccc2Br)cc1,17.4 µM
6,COc1ccc(C(=O)OCCCCC#Cc2ccc(C(=O)OC3CSSC3)cc2)cc1,4.58 µM
7,O=C(OC1CSSC1)c1ccc(OCCCOC(=O)c2cc(Br)ccc2Br)cc1,27.6 µM
8,O=C(OC1CSSC1)c1ccc(C#CCCCCOC(=O)c2ccccc2F)cc1,6.48 µM
